How the values were obtained:
DIO mouse model [1] = experiment: Chronic MEAI in DIO model: food consumption and energy metabolism; type: in vivo, mice; conditions: 40 mg/kg/day
Protocol: (§1) Effect of MEAI on Obesity. Male C57BL/6 mice were used to establish DIO by feeding them a high-fat diet (HFD; 60% Kcal fat, 20% Kcal protein, and 20% Kcal carbohydrates; Research Diet, D12492) for 18 weeks. After this period, mice were treated with either vehicle (sterile water, N=8) or MEAI (N=11) daily for 28 days by gavage at a dose of 40 mg/kg/day. Age-matched control mice (N=10) on a standard diet (STD; 14% Kcal fat, 24% Kcal protein, 62% Kcal carbohydrates; NIH-31 rodent diet) and received vehicle daily. The body weight of all mice was monitored daily, and total body fat and lean mass were determined by EchoMRI-100H™ (Echo Medical Systems LLC, Houston, TX, USA). On Day 29, at the end of the experimental period, mice were euthanized by a cervical dislocation under anesthesia. The kidneys, brain, liver, and fat pads were removed and weighed, and samples were either snap-frozen or fixed in buffered 4% formalin. Trunk blood was collected to determine biochemical parameters.
(§2) Multi-parameter metabolic assessment. The metabolic profiles and food and water intakes of the mice were assessed by using the Promethion High-Definition Behavioral Phenotyping System (Sable Instruments, Inc., Las Vegas, NV, USA). Data acquisition and instrument control were performed using MetaScreen software version 2.2.18.0, and the obtained raw data were processed using ExpeData version 1.8.4 using an analysis script detailing all aspects of data transformation. Mice with free access to food and water were subjected to a standard 12 h light/12 h dark cycle, which consisted of a 48 h acclimation period followed by 24 h of sampling. Respiratory gases were measured by using the GA-3 gas analyzer (Sable Systems, Inc., Las Vegas, NV, USA) using a pull-mode, negative pressure system. Air flow was measured and controlled by FR-8 (Sable Systems, Inc., Las Vegas, NV, USA), with a set flow rate of 2000 mL/min. Water vapor was continuously measured and its dilution effect on O2 and CO2 was mathematically compensated. Respiratory exchange rate (RER) was calculated as the ratio of CO2 produced (VCO2) to O2 consumed (VO2) using Equation (1): […]
(§3) Total energy expenditure (TEE) was calculated using VO2 and RER, according to Equation (2): […]
(§4) Fat oxidation (FO) and carbohydrate oxidation (CHO) were calculated using VO2 and VCO2 based on Equations (3) and (4), respectively: […]

C57BL/6 mice [2] = experiment: Acute wheel running and locomotive activity; type: in vivo
Protocol: (§5) Male 6-week-old C57BL/6 mice (Envigo, Israel) were maintained under a 12-h light/dark cycle and fed ad libitum. A total of 32 animals were divided into four experimental groups (N=8 mice per group) receiving single doses of 40, 60, or 100 mg/kg of MEAI or vehicle (sterile water), which was administered via oral gavage two hours prior to the dark phase. The animals were monitored for 48 hours post-dose for drug tolerability, food and water intakes as well as activity and metabolic parameters. At the end of the experiment, the animals were euthanized, and tissues (brain, liver, fat, and kidney) and blood were collected and stored frozen for future analyses. To generate diet-induced obesity, C57BI6/J mice were fed either a high-fat diet (HFD) (60% of calories from fat, 20% from protein, and 20% from carbohydrates; Research Diet, D12492) or a standard laboratory diet (STD, 14% fat, 24% protein, 62% carbohydrates; NIH-31 rodent diet) for 18 weeks.
(§6) Wheel running and locomotive activity. The assessment of wheel running and locomotor activity was performed using the Promethion High-Definition Behavioral Phenotyping System (Sable Instruments, Inc., Las Vegas, NV, USA). Wheel revolutions were measured with a monitor that recorded voluntary wheel running activity, and locomotor activity was quantified using disruptions of infrared XYZ beam arrays, with a beam spacing of 0.25 cm.

DIO mouse model [3] = experiment: Chronic MEAI in HFD-induced obesity (DIO) model: body weight and body composition; type: in vivo, mice; conditions: 28 days
Protocol: as §1

C57BL/6 mice [4] = experiment: Acute multi-parameter metabolic assessment (food and water intake, respirometry); type: in vivo
Protocol: as §5, §2, §3, §4

DIO mouse model [5] = experiment: Chronic MEAI in DIO model: wheel running and locomotive activity; type: in vivo, mice; conditions: 40 mg/kg/day
Protocol: as §1, §6

[6] = compared to HFD vehicle-treated group
[7] = single dose, 40 mg/kg and above
[8] = single dose 40, 60, 100 mg/kg, 24-hour period
[9] = single dose, 60 and 100 mg doses
[10] = in comparison with HFD-vehicle group

COc1ccc2c(c1)CC(N)C2 (stereo not shown) [MEAI, 5-methoxy-2-aminoindan]
carbohydrate oxidation (CHO) (DIO mouse model [1]; HFD-fed mice): no effect of the drug itself
respiratory exchange rate (RER) (DIO mouse model [1]; HFD-fed mice, in comparison to STD vehicle group): slightly decreased
food intake per meal (DIO mouse model [1]; HFD-fed mice, both MEAI and vehicle HFD groups): reduction in food intake per meal
carbon dioxide production (DIO mouse model [1]; [6]): slightly increased
oxygen consumption (DIO mouse model [1]; [6]): slightly increased
energy expenditure (DIO mouse model [1]; compared to both HFD and STD vehicle groups, light and dark phases): significant increase
overall rate of fat oxidation (FO) (DIO mouse model [1]; compared to both HFD- and STD-vehicle groups): increase
water intake (DIO mouse model [1]; obese mice): did not have any effect
voluntary wheel running (C57BL/6 mice [2]; single dose 100 mg/kg): significant suppression
total number of beam breaks (ambulatory and fine movements) (C57BL/6 mice [2]; single dose 40, 60, 100 mg/kg): no significant changes
voluntary wheel running (C57BL/6 mice [2]; single dose 40 and 60 mg/kg): minor elevations
directed voluntary activity (pedestrian locomotion) (C57BL/6 mice [2]; [7]): significant and dose-dependent increase
pedestrian speed (C57BL/6 mice [2]; [7]): significant and dose-dependent increase
total pedometer count (C57BL/6 mice [2]; single dose, all doses tested (40, 60, 100 mg/kg)): increase
body weight of HFD-fed mice (DIO mouse model [3]; 40 mg/kg/day by gavage): significantly reduced
decrease in total body weight compared to the obese vehicle-treated group (DIO mouse model [3]; 40 mg/kg/day by gavage, HFD-fed mice): ~15%
adiposity associated with obesity (DIO mouse model [3]; 40 mg/kg/day, HFD-fed mice): reduced
lean body mass, lean body mass ratio, net lean mass (DIO mouse model [3]; 40 mg/kg/day, HFD-fed mice): preserved
overall fat mass (DIO mouse model [3]; 40 mg/kg/day, HFD-fed mice): reducing
carbohydrate oxidation (CHO) rate (C57BL/6 mice [4]; [8]): corresponding elevations
fat oxidation (FO) rate (C57BL/6 mice [4]; [8]): corresponding elevations
total energy expenditure (TEE) (C57BL/6 mice [4]; [8]): significant dose-dependent increases
rate of carbon dioxide emission (VCO2) (C57BL/6 mice [4]; [9]): higher rates
rate of oxygen consumption (VO2) (C57BL/6 mice [4]; [9]): higher rates
respiratory exchange rate (RER) (C57BL/6 mice [4]; single dose, light phase, 60 and 100 mg doses): increase
water consumption (C57BL/6 mice [4]; single oral dose 40, 60 or 100 mg/kg): no notable changes
feeding patterns (food intake) (C57BL/6 mice [4]; single oral dose 40, 60 or 100 mg/kg, dark and light phases, vs vehicle): did not reach statistical significance
pedestrian locomotive activity, speed and total distance relative to STD-vehicle group (over-stimulatory effect) (DIO mouse model [5]; HFD-fed mice): did not surpass the levels of the STD-vehicle treated group
time spent engaging in various activities within the cage (DIO mouse model [5]; HFD-fed mice): preference for voluntary activities
voluntary wheel running (DIO mouse model [5]; HFD-fed mice): increased capability
voluntary actions such as pedestrian activity and grooming (ambulatory activity) (DIO mouse model [5]; HFD-fed mice, throughout the day, more prominent in dark phase): significantly increased
pedestrian locomotion speed (DIO mouse model [5]; [10]): increased
pedestrian locomotive activity (DIO mouse model [5]; [10]): increased
total distance travelled (DIO mouse model [5]; [10]): increased

Reference: patent US20260224512A1, “USE OF 5-METHOXY-2-AMINOINDAN ("MEAI") IN METHODS FOR TREATING METABOLIC SYNDROME” (Clearmind Labs Corp., priority 2022, published 2026)
